Results from PMC3435245, “D-Alanylation of Lipoteichoic Acids Confers Resistance to Cationic Peptides in Group B Streptococcus by Increasing the Cell Wall Density” (PLoS Pathogens, 2012).
Converted amounts (≈) assume the structure as drawn. Marks after values point to notes of the source that are not given here. Where a SMILES comes first, the peptide text is derived from it. Bridges are numbered along the chain shown (N, C = ends). [ ]: non-standard residue; d: D form. The star is where a group is joined. Heptanoyl(6-Me) = CC(C)CCCCC(=O)*; X1 = CC[C@H](C)CCCCC(=O)*; Dab = NCC[C@H](N)C(=O)O

Key:
[1] = test system: GBS ΔmprF mutant; test: MIC90 by dilution method, GBS ΔmprF; format: cell-based, Streptococcus agalactiae; details: Todd-Hewitt broth with 100 mM HEPES, 2×10^6 CFU, 96-well polypropylene microplate, overnight 37°C, OD600 nm; average of triplicate measurements
Method: (§1) The MICs of each antimicrobial peptide were tested in Todd-Hewitt broth (THB) buffered with 100 mM HEPES in 96-well polypropylene microplates (Costar, Cambridge, MA) by a dilution method. Bacteria (2×10^6 CFU) were added in triplicates to wells containing increasing concentrations of the antimicrobial peptides. Plates were incubated at 37°C with shaking overnight and then read (OD600 nm) using microplate reader (Labsystems Multiskanat) for bacterial growth. The MICs90 was considered to be the peptide concentration that inhibited 90% growth.

[2] = test system: GBS ΔdltA mutant; test: MIC90 by dilution method, GBS ΔdltA; format: cell-based, Streptococcus agalactiae; details: for MIC90, ΔdltA: Todd-Hewitt broth with 100 mM HEPES, 2×10^6 CFU, 96-well polypropylene microplate, overnight 37°C, OD600 nm, average of triplicate measurements; for more active against the dltA mutant compared to the WT (fold dilution): from MICs of Table 2, statement for all natural peptides; for fold more active on the dltA mutant compared to the WT: from MICs, WT versus dltA mutant
Method: as §1

[3] = test system: GBS ΔcpsD mutant; test: MIC90 by dilution method, GBS ΔcpsD; format: cell-based, Streptococcus agalactiae; details: Todd-Hewitt broth with 100 mM HEPES, 2×10^6 CFU, 96-well polypropylene microplate, overnight 37°C, OD600 nm; average of triplicate measurements
Method: as §1

[4] = test system: GBS NEM316 WT strain; format: cell-based, Streptococcus agalactiae; details: Todd-Hewitt broth with 100 mM HEPES, 2×10^6 CFU, 96-well polypropylene microplate, overnight 37°C, OD600 nm; average of triplicate measurements
Method: as §1

[5] = test system: GBS ΔsrtA mutant; test: MIC90 by dilution method, GBS ΔsrtA; format: cell-based, Streptococcus agalactiae; details: Todd-Hewitt broth with 100 mM HEPES, 2×10^6 CFU, 96-well polypropylene microplate, overnight 37°C, OD600 nm; average of triplicate measurements
Method: as §1

[6] = test system: GBS Δlgt Δlsp mutant; test: MIC90 by dilution method, GBS Δlgt Δlsp; format: cell-based, Streptococcus agalactiae; details: Todd-Hewitt broth with 100 mM HEPES, 2×10^6 CFU, 96-well polypropylene microplate, overnight 37°C, OD600 nm; average of triplicate measurements
Method: as §1

[7] = RP-HPLC hydrophobicity (% AcN at elution); format: physicochemical; details: chromatographic, C4 reverse analytical column; eluted in 40 min, linear gradient of acetonitrile 30 to 70% v/v in water containing TFA (0.05% v/v)
Method: The procedure conducted as described previously. Briefly, peptides were synthesized using the Fmoc solid phase method on Rink amide resin ([…]). For fluorescent labeling of the N-terminus of the peptides, resin-bound peptides were treated with NBD or rhodamine dissolved in dimethyl formamide (DMF), washed thoroughly with DMF and then with methylene chloride, dried and then cleaved. […] The peptides were subjected to amino acid and mass spectrometry analysis to confirm their composition.

[8] = test system: GBS WT strain; test: Rhodamine-labeled peptide fluorescence self-quenching on addition of bacteria (aggregation), WT; format: cell-based, Streptococcus agalactiae; details: rhodamine-labeled peptide 1 µM, self-quenching (aggregation) relative to basal signal of the peptide after addition of bacteria, room temperature; means of triplicate measurements from two independent experiments
Description: (§2) We further investigated whether the increased cell wall density resulting from D-alanylation of LTAs can reduce CAMPs penetration through the cell wall barrier by following the interaction of fluorescently labeled CAMPs with intact bacteria. […] Here, we investigated if the peptides display different aggregation states when bound to the WT or the dltA mutant strains. This was done by monitoring changes in the signal intensity of rhodamine-labeled peptides following their interaction with the bacterial surface under under high (160 mM NaCl) and low (16 mM NaCl) ionic strength conditions. Addition of bacteria to the rhodamine-labeled peptides induced self-quenching of fluorescence for all tested peptides. However, no significant difference in aggregation was found in the WT compared to the dltA strain (Figure 7A and Table 3).
Real time tracking of the changes in the fluorescent signal of rhodamine or NBD labeled peptides was performed using an SLM-Aminco Bowman series 2-luminescence spectrophotometer (SLM-Aminco, Rochester, NY, USA) at room temperature. Typical spectral bandwidths were 5 nm for excitation and 5 nm for emission. […] Following signal stabilization, bacterial suspension (10 µl, OD600 nm adjusted to 4) or liposomes suspension (100 µM lipid final concentration) composed of cardiolipid/PG (1∶1 M/M) was added to the cuvette and the change in signal was monitored over time.

[9] = test system: GBS dltA mutant; test: Rhodamine-labeled peptide fluorescence self-quenching on addition of bacteria (aggregation), dltA; format: cell-based, Streptococcus agalactiae; details: rhodamine-labeled peptide 1 µM
Description: as §2
Real time tracking of the changes in the fluorescent signal of rhodamine or NBD labeled peptides was performed using an SLM-Aminco Bowman series 2-luminescence spectrophotometer (SLM-Aminco, Rochester, NY, USA) at room temperature. Typical spectral bandwidths were 5 nm for excitation and 5 nm for emission. […] The peptides were placed in a 5×5-mm quartz cuvette with constant magnetic stirring. Following signal stabilization, bacterial suspension (10 µl, OD600 nm adjusted to 4) or liposomes suspension (100 µM lipid final concentration) composed of cardiolipid/PG (1∶1 M/M) was added to the cuvette and the change in signal was monitored over time.

[10] = self-quenching (aggregation) relative to basal signal of the peptide after addition of bacteria, room temperature, means of triplicate measurements from two independent experiments

Compound | MIC90, ΔmprF [1] [µM] | MIC90, ΔdltA [2] [µM] | more active against the dltA mutant compared to the WT (fold dilution) [2] [fold dilution] | fold more active on the dltA mutant compared to the WT [2] [fold] | MIC90, ΔcpsD [3] [µM] | MIC90, WT [4] [µM] | MIC90, ΔsrtA [5] [µM] | MIC90, Δlgt Δlsp [6] [µM] | Hydrophobicity (% AcN) [7] [% AcN] | Signal change [%], NaCl (16 mM), WT [8] [%] | Signal change [%], NaCl (160 mM), WT [8] [%] | Signal change [%], NaCl (16 mM), dltA [9, 10] [%] | Signal change [%], NaCl (160 mM), dltA [9, 10] | Difference in signal change [%], NaCl (160 mM), Δ(dltA-WT) ([9]; difference in the signal change between dltA strain to the WT strain) [%]
CC(C)CCCCC(=O)N[C@@H](CCN)C(=O)N[C@H](C(=O)N[C@@H](CCN)C(=O)N[C@H]1CCNC(=O)[C@H]([C@@H](C)O)NC(=O)[C@H](CCN)NC(=O)[C@H](CCN)NC(=O)[C@H](CC(C)C)NC(=O)[C@@H](CC(C)C)NC(=O)[C@H](CCN)NC1=O)[C@@H](C)O ({Heptanoyl(6-Me)}-[Dab]T[Dab][Dab][Dab][dL]L[Dab][Dab]T; lactam 4-C; N-terminus assumed) | >221.6 | 13.9 (≈ 16.1 µg/mL) | > 2 | 8 | >221.6 | >221.6 | >221.6 | >221.6 | – | – | – | – | – | –
CC(C)C[C@H](NC(=O)[C@H](CC(C)C)NC(=O)[C@H](CCCCN)NC(=O)[C@H](CC(C)C)NC(=O)[C@H](CC(C)C)NC(=O)[C@H](CC(C)C)NC(=O)[C@H](CCCCN)NC(=O)[C@H](CC(C)C)NC(=O)[C@H](CC(C)C)NC(=O)[C@H](CCCCN)NC(=O)[C@@H](N)CCCCN)C(=O)N[C@@H](CCCCN)C(N)=O [K5L7] (H-KKLLKLLLKLLK-NH2) | – | 25 (≈ 36.3 µg/mL) | – | – | – | 25 (≈ 36.3 µg/mL) | – | – | – | – | – | – | – | –
CC(C)C[C@H](NC(=O)[C@H](CC(C)C)NC(=O)[C@H](CCCCN)NC(=O)[C@H](CC(C)C)NC(=O)[C@H](CC(C)C)NC(=O)[C@H](CCCCN)NC(=O)[C@H](CCCCN)NC(=O)[C@H](CC(C)C)NC(=O)[C@H](CC(C)C)NC(=O)[C@H](CCCCN)NC(=O)[C@H](CCCCN)NC(=O)[C@H](CC(C)C)NC(=O)[C@H](CC(C)C)NC(=O)[C@H](CCCCN)NC(=O)[C@@H](N)CC(C)C)C(N)=O [K6L9] (H-LKLLKKLLKKLLKLL-NH2; N-terminus assumed) | 17.7 (≈ 31.9 µg/mL) | 17.7 (≈ 31.9 µg/mL) | – | – | 35.5 (≈ 64.1 µg/mL) | 35.5 (≈ 64.1 µg/mL) | 35.5 (≈ 64.1 µg/mL) | 17.7 (≈ 31.9 µg/mL) | 67.2 | – | – | – | – | –
CC(C)C[C@H](NC(=O)[C@H](CCCCN)NC(=O)[C@H](CCCCN)NC(=O)[C@H](CCCCN)NC(=O)[C@H](CC(C)C)NC(=O)[C@H](CCCCN)NC(=O)[C@H](CCCCN)NC(=O)[C@H](CC(C)C)NC(=O)[C@H](CC(C)C)NC(=O)[C@H](CCCCN)NC(=O)[C@H](CCCCN)NC(=O)[C@H](CC(C)C)NC(=O)[C@H](CCCCN)NC(=O)[C@H](CCCCN)NC(=O)[C@@H](N)CC(C)C)C(N)=O [K9L6] (H-LKKLKKLLKKLKKKL-NH2) | – | 25 (≈ 46.2 µg/mL) | – | – | – | 25 (≈ 46.2 µg/mL) | – | – | – | – | – | – | – | –
CC[C@H](C)[C@H](NC(=O)[C@H](CCCCN)NC(=O)[C@H](CCC(=O)O)NC(=O)[C@H](CCCCN)NC(=O)[C@H](CO)NC(=O)[C@H](CCCCN)NC(=O)[C@H](CCCNC(=N)N)NC(=O)[C@H](Cc1ccccc1)NC(=O)[C@H](Cc1ccccc1)NC(=O)[C@H](CC(=O)O)NC(=O)CNC(=O)[C@H](CC(C)C)NC(=O)[C@@H](N)CC(C)C)C(=O)NCC(=O)N[C@@H](CCCCN)C(=O)N[C@@H](CCC(=O)O)C(=O)N[C@@H](Cc1ccccc1)C(=O)N[C@@H](CCCCN)C(=O)N[C@@H](CCCNC(=N)N)C(=O)N[C@H](C(=O)N[C@H](C(=O)N[C@@H](CCC(N)=O)C(=O)N[C@@H](CCCNC(=N)N)C(=O)N[C@H](C(=O)N[C@@H](CCCCN)C(=O)N[C@@H](CC(=O)O)C(=O)N[C@@H](Cc1ccccc1)C(=O)N[C@@H](CC(C)C)C(=O)N[C@@H](CCCNC(=N)N)C(=O)N[C@@H](CC(N)=O)C(=O)N[C@@H](CC(C)C)C(=O)N[C@H](C(=O)N1CCC[C@H]1C(=O)N[C@@H](CCCNC(=N)N)C(=O)N[C@H](C(=O)N[C@@H](CCC(=O)O)C(=O)N[C@@H](CO)C(N)=O)[C@@H](C)O)C(C)C)[C@@H](C)CC)C(C)C)[C@@H](C)CC [LL-37] | >14.2 | 3.6 (≈ 16.2 µg/mL) | – | – | >14.2 | >14.2 | >14.2 | >14.2 | – | – | – | – | – | –
CC[C@H](C)[C@H](NC(=O)CN)C(=O)NCC(=O)N[C@@H](CCCCN)C(=O)N[C@@H](Cc1ccccc1)C(=O)N[C@@H](CC(C)C)C(=O)N[C@@H](Cc1c[nH]cn1)C(=O)N[C@@H](CO)C(=O)N[C@@H](C)C(=O)N[C@@H](CCCCN)C(=O)N[C@@H](CCCCN)C(=O)N[C@@H](Cc1ccccc1)C(=O)NCC(=O)N[C@@H](CCCCN)C(=O)N[C@@H](C)C(=O)N[C@@H](Cc1ccccc1)C(=O)N[C@H](C(=O)NCC(=O)N[C@@H](CCC(=O)O)C(=O)N[C@H](C(=O)N[C@@H](CCSC)C(=O)N[C@@H](CC(N)=O)C(=O)N[C@@H](CO)C(N)=O)[C@@H](C)CC)C(C)C [Magainin 2] (H-GIGKFLHSAKKFGKAFVGEIMNS-NH2) | >25.5 | 6.4 (≈ 15.8 µg/mL) | – | – | >25.5 | >25.5 | >25.5 | >25.5 | – | – | – | – | – | –
CC[C@H](C)CCCCC(=O)N[C@@H](CCN)C(=O)N[C@H](C(=O)N[C@@H](CCN)C(=O)N[C@H]1CCNC(=O)[C@H]([C@@H](C)O)NC(=O)[C@H](CCN)NC(=O)[C@H](CCN)NC(=O)[C@H](CC(C)C)NC(=O)[C@@H](Cc2ccccc2)NC(=O)[C@H](CCN)NC1=O)[C@@H](C)O [Polymyxin B] (X1-[Dab]T[Dab][Dab][Dab][dF]L[Dab][Dab]T; lactam 4-C (inferred); N-terminus assumed) | 92.4 (≈ 111 µg/mL) | 5.8 (≈ 6.98 µg/mL) | > 2 | 8 | 92.4 (≈ 111 µg/mL) | 92.4 (≈ 111 µg/mL) | 92.4 (≈ 111 µg/mL) | 92.4 (≈ 111 µg/mL) | 53.2 | – | – | – | – | –
CH3(CH2)6CO-KKLLKLLLKLLK-NH2 [C8-K5L7, lipopeptide: K5L7 coupled to a short fatty acid] | – | 3 | – | – | – | 3 | – | – | 61.4 | – | – | – | – | –
Rho-LL37: rhodamine-labeled LL37 (N-terminus) | – | – | – | – | – | – | – | – | – | −60.8 | −26.6 | −58.6 | −32.7 ^c % | 6.1
